Test results: patent US20230241060A1, “GLUCOCORTICOID-SPARING AGENT” (METRIOPHARM AG, priority 2020, published 2023)
Where “and” joins values, the source holds several entries; their conditions need not be identical. Equal values may be shown once. Read-outs that look alike come from different tables or passages of the source.

What was measured:
[1] = Case report rheumatoid arthritis; format: in vivo, human; conditions: person, 10 mg prednisone retard tablets once daily
From the text: A person was diagnosed with rheumatoid arthritis a few months after experiencing first symptoms.

[2] = Schumann et al. 2020; cited from earlier work
[3] = Body weight in pilot study of collagen induced arthritis (CIA) in mice; conditions: MP1032 1 mg/kg/day alone, intraperitoneally
[4] = system: IL-6 production, LPS stimulated RAW264.7 cells; assay: IL-6 levels (ELISA) in supernatants of LPS stimulated RAW264.7 cells; format: cell-based, mouse
Method: Raw264.7 cells (leukemia transformed monocytic-macrophage cell line derived from mouse ascitic fluid) were grown in Dulbecco's Modified Eagle's Medium enriched with glutamine and fetal calf serum and maintained at 37° C. and 5% CO2.
Two experimental parts were performed.

C[C@]12C=CC(=O)C=C1CC[C@@H]1[C@@H]2C(=O)C[C@@]2(C)[C@H]1CC[C@]2(O)C(=O)CO [prednisone]
pain and inflammation ([1]; rheumatoid arthritis, within months): improved
body weight [1]: started to gain weight

Nc1cccc2c(=O)[nH][nH]c(=O)c12
tolerability [2]: well tolerated

Nc1cccc2c(=O)[nH][nH]c(=O)c12.[Na]
Body weight on day 45, median [3]: (23.6, n = 11) g
Percentage inhibition of IL-6 production ([4]; Exp Part 1, MP1032 0.025 mM alone, sodium salt): 17% and 17.03%
Percentage inhibition of IL-6 production ([4]; Exp Part 1, MP1032 0.05 mM alone, sodium salt): 25.8% and 25.77%
Percentage inhibition of IL-6 production ([4]; Exp Part 1, MP1032 0.1 mM alone): 44.85%
Percentage inhibition of IL-6 production ([4]; Exp Part 1, MP1032 0.25 mM alone): 53.95%
Percentage inhibition of IL-6 production ([4]; Exp Part 1, MP1032 0.5 mM alone): 56.70%
Percentage inhibition of IL-6 production ([4]; Exp Part 1, MP1032 1 mM alone): 72.75%
Percentage inhibition of IL-6 production ([4]; Exp Part 2, MP1032 0.025 mM alone): 1.57%
Percentage inhibition of IL-6 production ([4]; Exp Part 2, MP1032 0.05 mM alone): 0%
Percentage inhibition of IL-6 production ([4]; Exp Part 2, MP1032 0.1 mM alone): 0%
Percentage inhibition of IL-6 production ([4]; Exp Part 2, MP1032 0.25 mM alone): 13.85%
Percentage inhibition of IL-6 production ([4]; Exp Part 2, MP1032 0.5 mM alone): 47.52%
Percentage inhibition of IL-6 production ([4]; Exp Part 2, MP1032 1 mM alone): 67.30%

C[C@@H]1C[C@H]2[C@@H]3CCC4=CC(=O)C=C[C@]4(C)[C@@]3(F)[C@@H](O)C[C@]2(C)[C@@]1(O)C(=O)CO [Dexamethasone, dexamethasone, reference compound]
Percentage inhibition of IL-6 production ([4]; Exp Part 1, dexamethasone 0.01 μM alone): 34.66%
inhibition at 0.01 µM ([4]; Mus musculus, RAW264.7, Exp Part 1, dexamethasone 0.01 μM alone, read-out: Percentage inhibition of IL-6 production): 34.7%
inhibition at 0.1 µM ([4]; Mus musculus, RAW264.7, Exp Part 1, dexamethasone 0.1 μM alone, read-out: Percentage inhibition of IL-6 production): 63.8%
inhibition at 1 µM ([4]; Mus musculus, RAW264.7, Exp Part 1, dexamethasone 1 μM alone, read-out: Percentage inhibition of IL-6 production): 87%
inhibition at 0.0003 µM ([4]; Mus musculus, RAW264.7, Exp Part 2, dexamethasone 0.0003 μM alone, read-out: Percentage inhibition of IL-6 production): 1.57%
inhibition at 0.0006 µM ([4]; Mus musculus, RAW264.7, Exp Part 2, dexamethasone 0.0006 μM alone, read-out: Percentage inhibition of IL-6 production): 4.07%
inhibition at 0.0012 µM ([4]; Mus musculus, RAW264.7, Exp Part 2, dexamethasone 0.0012 μM alone, read-out: Percentage inhibition of IL-6 production): 0%
inhibition at 0.0025 µM ([4]; Mus musculus, RAW264.7, Exp Part 2, dexamethasone 0.0025 μM alone, read-out: Percentage inhibition of IL-6 production): 4.16%
inhibition at 0.005 µM ([4]; Mus musculus, RAW264.7, Exp Part 2, dexamethasone 0.005 μM alone, read-out: Percentage inhibition of IL-6 production): 30.6%
inhibition at 0.01 µM ([4]; Mus musculus, RAW264.7, Exp Part 2, dexamethasone 0.01 μM alone, read-out: Percentage inhibition of IL-6 production): 36.3%
